Results on four molecules are retold here after PMC6017415, “Carbamates as Potential Prodrugs and a New Warhead for HDAC Inhibition” (Molecules : A Journal of Synthetic Chemistry and Natural …, 2018).

Where “and” joins values, the source holds several entries; their conditions need not be identical. Identical values can stand only once.

One series has as its system HL60 cells. The experiment in a line: Cell proliferation assay (CellTiter 96 AQueous) in HL60 cells. The note with it: Homo sapiens, HL-60, 72 h, read-out: GI50 (µM) ± SE HL60.
Another series deals with T1, recombinant human HDAC8 (Homo sapiens, UniProt Q9BY41).
T1 construct: made in house
T1 sequence (Q9BY41 1-377): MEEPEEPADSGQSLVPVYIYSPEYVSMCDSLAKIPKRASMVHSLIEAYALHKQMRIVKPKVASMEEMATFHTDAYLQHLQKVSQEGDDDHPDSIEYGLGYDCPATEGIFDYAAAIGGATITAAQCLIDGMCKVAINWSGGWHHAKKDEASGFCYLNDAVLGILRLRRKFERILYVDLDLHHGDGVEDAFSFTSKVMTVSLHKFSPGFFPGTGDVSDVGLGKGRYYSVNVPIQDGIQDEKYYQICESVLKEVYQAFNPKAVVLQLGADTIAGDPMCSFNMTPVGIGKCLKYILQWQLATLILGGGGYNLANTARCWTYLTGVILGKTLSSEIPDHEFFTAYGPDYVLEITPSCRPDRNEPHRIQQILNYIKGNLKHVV
The experiment in a line: HDAC8 in vitro inhibition assay (Fluor de Lys kit). The class given is biochemical. The note with it: for inhibition at 100 µM: read-out: Inhibition (%) @ Conc. (µM) HDAC8. An excerpt: (§1) In order to investigate a potential subtype selectivity among different HDAC classes, we first tested them against the recombinant histone deacetylases HDAC1 (class I) and HDAC6 (class llb). […] To further address this issue, we also tested the respective compounds against the class l histone deacetylase HDAC8 (also see Table 1).
(§2) Recombinant human HDAC1 and 6 were purchased from BPS Biosciences (San Diego, CA, USA), and recombinant human HDAC8 was produced as described before. Inhibition tests of human HDAC1 and 6 were conducted using carboxybenzyl acetyllysine aminomethylcoumarin (ZMAL) as a substrate. […] For testing of HDAC8, the commercial Fluor de Lys drug discovery kit (BML-KI178) (Enzo Life Sciences, Lausen, Switzerland) was used according to the manufacturer’s instruction. Briefly, the test compound, Fluor de Lys-HDAC8 substrate (50 μM), and enzyme were incubated for 90 min at 37 °C with subsequent addition of 50 μL of Developer II (BML-KI176) (Enzo Life Sciences, Lausen, Switzerland) and further incubation for 45 min at 30 °C. In both assays, trichostatin A (2 μM) was used to stop the reaction. Fluorescence in both cases was measured in a plate reader (BMG Polarstar, BMG Labtech, Ortenberg, Germany) with excitation at λ = 390 nm and emission at λ = 460 nm.

In series [1] the test system is HDAC activity in HL60 cells. The experiment in a line: Cellular HDAC inhibition assay (MAL substrate) in HL60 cells. The note with it: Homo sapiens, HL-60, read-out: IC50 (µM) ± SE cellular HDAC inhibition HL60.
Protocol: (§3) Therefore, we decided to adapt this assay for a cellular setting allowing us to verify the previous results by assessing HDAC inhibition in the human leukemia cell lines HL60 and U937 (see the right side of Table 2).
(§4) After 2 h of incubation, 50 µL substrate solution were added, containing tert-butyloxycarbonyl acetyl lysine aminomethylcoumarin (MAL) as a substrate (300 µM final assay concentration) and IGEPAL CA-630 (final concentration 0.05%). After 2 more hours of incubation at 37 °C and 5% CO2, 50 µL stop solution consisting of 0.5 µL TSA (100 µM) and 5 µL trypsin solution (10 mg/mL) in 44.5 µL cell buffer were added. This mixture was incubated for a further 20 min at 37 °C. Fluorescence was measured in a plate reader (BMG Polarstar) with excitation at λ = 390 nm and emission at λ = 460 nm.
Series [2] concerns HDAC activity in U937 cells. The experiment in a line: Cellular HDAC inhibition assay (MAL substrate) in U937 cells. The note with it: Homo sapiens, U-937, read-out: IC50 (µM) ± SE cellular HDAC inhibition U937.
Protocol: as §3, §4
A short description of series [3]: Stability analysis under in vitro assay conditions, HPLC quantification of released hydroxamic acid. The class given is physicochemical. The note with it: in vitro assay conditions without substrate, HDAC1 present, compound 2.4 mM, 90 min 37 °C. How it is done:
In order to address the question if the newly-synthesized carbamates are hydrolyzed during the assay procedure or if they really serve as HDAC inhibitors themselves, stability stress tests were performed. For this purpose, the compounds were subjected to the standard in vitro assay conditions, but without adding a substrate as, no enzyme conversion should be observed in these experiments. After 90 min of incubation at 37 °C, the release of SAHA of the different samples was detected and quantified via HPLC. This led to the finding that a release of SAHA could be detected for all samples (see Table 1). […] This means that the question if the carbamate scaffold represents a new warhead for HDAC inhibition or if the degradation to SAHA is solely responsible for the observed inhibitory effects cannot be resolved completely.
To test the stability of Compound 9 under assay conditions, we also performed stability analysis with HPLC quantification. This experiment led to the finding that 8.7% of the carbamate 9 is degraded under release of bufexamac during incubation time. This fraction of released bufexamac may contribute to in vitro and cellular HDAC inhibition, but the observed selectivity profile of the carbamate in the in vitro assays clearly implies an intrinsic HDAC activity of carbamates.
For stability tests, the carbamates were subjected to the described in vitro assay conditions (see above) without adding the substrate ZMAL and without the second incubation step with trypsin. Compounds were applied in a final concentration of 2.4 mM, and recombinant HDAC1 was used as the enzyme. After 90 min of incubation at 37 °C, the release of SAHA was detected via HPLC on an Agilent 1200 series device. The employed analytical column was a Kinetex 5u XB-C18, 100 Å, 250 × 4.6 mm (Phenomenex, Torrance, CA, USA) with the ReproSil 100 C18 5-µm precolumn (Jasco, Oklahoma City, OK, USA). The following conditions were applied: Eluent A: H2O containing 0.05% TFA, Eluent B: acetonitrile containing 0.05% TFA, linear gradient conditions (0–4 min, A = 90%, B = 10%; 4–29 min, linear increase to 100% of B; 29–31 min, B = 100%; 31.5–40 min, A = 10%, B = 90%); injection volume: 30 µL, flow rate: 1 mL/min; detection wavelength: λ = 254 nm. For evaluation, the ChemStation software from Agilent was used. To quantify the released amount of SAHA and bufexamac, calibration curves were plotted by incubating DMSO stocks of these compounds under in vitro assay conditions with final compound concentrations ranging from 1 µM–200 µM. HPLC analysis with the conditions described above led to the following equations: y = 13.935x − 27.918 for SAHA and y = 0.6099x + 1.1301 for bufexamac.

For a further series, the system named is U937 cells. The series is described as follows: Cell proliferation assay (CellTiter 96 AQueous) in U937 cells. The note with it: Homo sapiens, U-937, 72 h, read-out: GI50 (µM) ± SE U937.
The next series has as its target T2, recombinant human HDAC1 (Homo sapiens, UniProt Q13547).
T2 construct: purchased BPS Biosciences (San Diego, CA, USA)
The experiment in a line: HDAC1 in vitro fluorescence-based inhibition assay (ZMAL substrate). The class given is biochemical. The note with it: recombinant human HDAC1, ZMAL 10.5 µM, 90 min 37 °C; for IC50: read-out: IC50 (µM) ± SE HDAC1.
From the text: as §1, §2

T2 sequence (Q13547 whole entry): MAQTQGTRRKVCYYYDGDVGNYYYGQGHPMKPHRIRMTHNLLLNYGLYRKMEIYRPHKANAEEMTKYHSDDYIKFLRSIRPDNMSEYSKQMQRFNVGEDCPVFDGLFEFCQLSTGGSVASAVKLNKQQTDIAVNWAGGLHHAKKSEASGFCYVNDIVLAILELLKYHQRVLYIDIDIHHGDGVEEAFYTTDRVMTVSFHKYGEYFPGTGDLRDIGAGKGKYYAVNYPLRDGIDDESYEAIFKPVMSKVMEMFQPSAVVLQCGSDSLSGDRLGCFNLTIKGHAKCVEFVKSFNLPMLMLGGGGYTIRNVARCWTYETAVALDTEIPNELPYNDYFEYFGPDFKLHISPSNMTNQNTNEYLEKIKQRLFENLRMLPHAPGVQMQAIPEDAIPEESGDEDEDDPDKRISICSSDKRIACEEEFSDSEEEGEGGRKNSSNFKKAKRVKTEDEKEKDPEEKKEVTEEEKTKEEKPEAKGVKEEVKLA

As for `CC(C)NC(=O)ONC(=O)CCCCCCC(=O)Nc1ccccc1` [Compound 2a, [(8-Anilino-8-oxo-octanoyl)amino]N-isopropylcarbamate], the GI50 in the series with HL60 cells is 1.02 ± 0.09 µM; with U937 cells it was 0.49 ± 0.09 µM. Further, the inhibition at 100 µM at recombinant human HDAC8 was 35%. The IC50 in series [1] stood at 3.25 ± 0.02 µM; in series [2] it was 5.3 ± 0.59 µM; on recombinant human HDAC1 it was 1.52 ± 0.02 µM. The “Release of SAHA (%)” value in series [3] was 2.2%. Besides, at recombinant human HDAC1, the “IC50 (µM) ± SE HDAC1” value was “low micromolar range”.

Turning to `O=C(CCCCCCC(=O)Nc1ccccc1)NOC(=O)NCc1ccccc1` [Compound 2b, [(8-Anilino-8-oxo-octanoyl)amino]N-benzylcarbamate], the GI50 in the series on HL60 cells amounted to 1.06 ± 0.11 µM; in the series with U937 cells it was 0.68 ± 0.09 µM. Also, the inhibition at 100 µM on recombinant human HDAC8 was found to be 52%. The half-inhibitory concentration (IC50) in series [1] is 1.89 ± 0.04 µM; in series [2], 3.02 ± 0.03 µM; on recombinant human HDAC1, 0.74 ± 0.01 µM. Also, in series [3], the “Release of SAHA (%)” value came out at 0.5%.

Take `CCNC(=O)ONC(=O)CCCCCCC(=O)Nc1ccccc1` [Compound 2c, [(8-Anilino-8-oxo-octanoyl)amino]N-ethylcarbamate]: the values for the GI50 in the series on HL60 cells and with U937 cells were 0.99 ± 0.17 µM and 0.88 ± 0.13 µM, respectively. For the same molecule, on recombinant human HDAC8, the inhibition at 100 µM is 68%. For the same molecule, the values for the IC50 (in series [1]; in series [2]; on recombinant human HDAC1) were 1.42 ± 0.53 µM, 2.07 ± 0.04 µM and 0.79 ± 0.01 µM, respectively. Besides, in series [3], the “Release of SAHA (%)” value amounted to 14.5%.

On to `O=C(CCCCCCC(=O)Nc1ccccc1)NOC(=O)Nc1ccccc1` [Compound 2d, [(8-Anilino-8-oxo-octanoyl)amino]N-phenylcarbamate], for which the concentration for 50% growth inhibition (GI50) in the series with HL60 cells is 0.58 ± 0.05 µM; in the series on U937 cells, 0.42 ± 0.13 µM. The 50% inhibitory concentration (IC50) on recombinant human HDAC8 (recombinant human HDAC8, Fluor de Lys-HDAC8 substrate 50 µM, 90 min 37 °C, read-out: IC50 (µM) ± SE HDAC8) was 6.5 µM and 6.49 µM; in series [1], 0.69 ± 0.004 µM; in series [2], 0.71 ± 0.002 µM; at recombinant human HDAC1, 0.132 ± 0.001 µM. Further, the “Release of SAHA (%)” value in series [3] is given as 4.6%.

A word on the GI50: it is the concentration at which growth is held to half of that of the control. The inhibition is the percentage by which the read-out fell short of the control. As a reminder, the IC50 is the point on the concentration scale where inhibition reaches its midpoint.
